Converted amounts (≈) assume the structure as drawn. “And” between values parts separate entries of the source, which are not always exact repeats. Identical values can stand only once. “Also recorded” adds a separate entry of the source.
Key:
[1] = tested on: Bacillus subtilis; experiment: HPLC fractions tested against Bacillus subtilis (gelose diffusion test); assay type: cell-based; conditions: concentrated HPLC peak fractions
Experimental: A sample of the strain SA 103 taken from an immature inclined culture was inoculated into an Erlenmeyer flask containing 50 ml of the sterile culture medium containing 0.4t glucose, a 1% malt extract and a 0.4% yeast extract (adjusted to pH 7.2 before sterilisation) and placed in culture on a rotary stirrer (250 rpm) at 30° C. for two days. For producing antibiotics, 3 ml of culture medium were transferred to 500 ml Erlenmeyer flasks, each containing 100 ml of the above medium, and placed in culture for 10 days using the same conditions. The production of total antibacterial activity was carried out on a nutrient gelose, by a gelose diffusion test against Bacillus sutilis ATCC 6633. Inhibition of growth was examined after 24 hours of incubation at 30° C. Antimicrobial activity was estimated by measuring the diameter of the inhibition zone. The dry weight of the mycelium was determined in Eppendorf tubes filled with 1 ml of homogenized culture medium and dried at 105° C. for 24 hours (Pfefferle et al. J. Biotech. 80:135-142, 2000).
The butanolic extract, of a red colour, was concentrated on the Rotavapor. An aliquot of this extract was first sent through a Sephadex LH 20 column using methanol in double distilled water (80%) as the mobile phase. However, the separation of the antibiotics (visualisation by the naked eye and by the antibiography) was not conclusive. This step was therefore eliminated and the butanolic extract was purified directly by a reverse phase HPLC using a C18 column and isocratic conditions (63% methanol in water), a flow rate of 1.5 ml/min and detection at 220 nm. The fractions corresponding to all the peaks obtained on the profile were collected separately, concentrated and tested against Bacillus subtilis. […] These antibiotics were purified by HPLC after 3 to 4 reinjections in the same conditions as previously.

[2] = tested on: Klebsiella pneumoniae CIP 82.91; experiment: MIC, antimicrobial spectrum; assay type: cell-based; conditions: for activity in words: K. pneumoniae; for MIC: Klebsiella pneumoniae, CIP82, Klebsiella pneumoniae CIP 82.91
[3] = tested on: Mucor ramannianus NRRL 1829; experiment: MIC, antimicrobial spectrum; assay type: cell-based; conditions: Umbelopsis ramanniana, NRRL1829
[4] = tested on: Bacillus subtilis ATCC 6633; experiment: MIC, antimicrobial spectrum; assay type: cell-based; conditions: for MIC: ATCC6633, Bacillus subtilis ATCC 6633
[5] = Relative solubility in solvents; assay type: physicochemical; conditions: value = list of solvents; for Relative solubility: Highly soluble (solvents) / Relative solubility: Insoluble (solvents) / Relative solubility: Medium soluble (solvents): wrapped cells given line by line
Text: The antibiotics P11, PR, F and G are bright red in colour at neutral pH, yellow at acid pH and violet-blue at basic pH. P11 is the majority antibiotic and PR, the minority antibiotic. These antibiotics were the subject of the following […] analyses: UV visible light, infrared, mass spectrometry and NMR of the proton and carbon 13 (with studies of the correlations). Supplementary tests, such a solubility, determination of Rf by CCM and elemental analysis (the latter only for P11) were also carried out.

[6] = tested on: Listeria monocytogenes CIP 82110; experiment: MIC, antimicrobial spectrum; assay type: cell-based; conditions: CIP82110, Listeria monocytogenes CIP 82110
[7] = tested on: Saccharomyces cerevisiae ATCC 4226; experiment: MIC, antimicrobial spectrum; assay type: cell-based; conditions: ATCC4226
[8] = tested on: Micrococcus luteus ATCC 9314; experiment: MIC, antimicrobial spectrum; assay type: cell-based; conditions: for MIC: ATCC9314, Micrococcus luteus ATCC 9314; for activity in words: M. luteus
[9] = tested on: Pseudomonas syringae No 1882; experiment: MIC, antimicrobial spectrum; assay type: cell-based; conditions: NO1882
[10] = tested on: Staphylococcus aureus CIP 53156; experiment: MIC, antimicrobial spectrum; assay type: cell-based; conditions: for activity in words: Staphylococcus aureus CIP 53156; for MIC: Staphylococcus aureus, CIP53156, Staphylococcus aureus CIP 53156
[11] = tested on: Staphylococcus aureus CIP 7625; experiment: MIC, antimicrobial spectrum; assay type: cell-based; conditions: CIP7625
[12] = tested on: Agrobacterium tumefaciens No 2410; experiment: MIC, antimicrobial spectrum; assay type: cell-based; conditions: NO2410
[13] = tested on: Escherichia coli ATCC 10536; experiment: MIC, antimicrobial spectrum; assay type: cell-based; conditions: ATCC10536
[14] = tested on: Mycobacterium smegmatis ATCC 607; experiment: MIC, antimicrobial spectrum; assay type: cell-based; conditions: for activity in words: Mycobacterium smegmatis; for MIC: Mycolicibacterium smegmatis, ATCC607, Mycobacterium smegmatis ATCC 607

| Structure (SMILES) | activity of the collected HPLC fraction against Bacillus subtilis [1] | activity in words [2] | MIC [2] [µg/mL] | MIC [3] [µg/mL] | activity in words [4] | MIC [4] [µg/mL] | Relative solubility: Highly soluble (solvents) [5] | Relative solubility: Insoluble (solvents) [5] | MIC [6] [µg/mL] | MIC [7] [µg/mL] | MIC [8] [µg/mL] | activity in words [8] | MIC [9] [µg/mL] | activity in words [10] | MIC [10] [µg/mL] | MIC [11] [µg/mL] | MIC [12] [µg/mL] | MIC [13] [µg/mL] | activity in words [14] | MIC [14] [µg/mL] | other results |
| --- | --- | --- | --- | --- | --- | --- | --- | --- | --- | --- | --- | --- | --- | --- | --- | --- | --- | --- | --- | --- | --- |
| COC1C(O)C(C)OC(OC2CC(C)(O)Cc3c(O)c4c(c(O)c32)C(=O)c2c(OC3OC(C)C(O)C(O)C3O)cccc2C4=O)C1O (stereo not drawn) [PR, mutactimycin PR] | active | active | 40 (≈ 60.4 µM) | > 100 | active | 75 (≈ 113 µM) | water, methanol and ethanol | chloroform, dichloromethane, ethyl acetate, n-hexane and toluene | > 100 | > 100 | 50 (≈ 75.5 µM) | active | > 100 | active | 50 (≈ 75.5 µM) | > 100 | > 100 | > 100 | active | > 100 | Relative solubility: Highly soluble (solvents) ([5]; listed as mutactimycin PR): MeOH, EtOH, H2O; Relative solubility: Insoluble (solvents) ([5]; listed as mutactimycin PR): CH2Cl2, CHCl3,; also recorded: EtOAc, n-hexane,; also recorded: toluene; Relative solubility: Medium soluble (solvents) ([5]; listed as mutactimycin PR): Me2CO, n-BuOH, 1-; also recorded: PrOH, 2-PrOH |
| COc1cccc2c1C(=O)c1c(O)c3c(c(O)c1C2=O)CC(C)(O)CC3OC1OC(C)C(O)C(O)C1O (stereo not drawn) [F, mutactimycin F] | active | active |  |  | active |  | n-BuOH, 1-PrOH | n-hexane and toluene |  |  |  | active |  | active |  |  |  |  | active |  | soluble in (solvents) [5]: water, n-butanol, 1-propanol and ethanol; Relative solubility: Medium soluble (solvents) [5]: MeOH, EtOH; Relative solubility: Insoluble (solvents) ([5]; listed as Mutactimycin F): H2O, CH2Cl2, CHCl3; also recorded: EtOAc, Me2CO, n-hexane,; also recorded: toluene |
| COc1cccc2c1C(=O)c1c(O)c3c(c(O)c1C2=O)CC(C)(O)CC3OC1OC(C)C(O)C(OC)C1O (stereo not drawn) [P11, mutactimycin C] | active |  | 5 (≈ 9.42 µM) | > 100 |  | 40 (≈ 75.4 µM) | water, methanol, n-butanol, ethanol, 1-propanol and acetone; also recorded: MeOH, Me2CO, H20, n-; also recorded: BuOH, EtOH, 1-PrOH | n-hexane and toluene | 50 (≈ 94.2 µM) | > 100 | 5 (≈ 9.42 µM) |  | > 100 |  | 10 (≈ 18.8 µM) | > 100 | > 100 | > 100 |  | 75 (≈ 141 µM) | Relative solubility: Medium soluble (solvents) [5]: CH2Cl2, CHCl3, EtOAc, and 2-PrOH |
| CC1OC(Oc2cccc3c2C(=O)c2c(O)c4c(c(O)c2C3=O)CC(C)(O)CC4O)C(O)C(O)C1O (stereo not drawn) [G, mutactimycin G] | active | active |  |  | active |  | n-BuOH, l-PrOH | chloroform, dichloromethane, ethyl acetate, n-hexane and toluene; also recorded: H2O, CH2Cl2, CHCl3, EtOAc,; also recorded: Me2CO, n-hexane, toluene |  |  |  | active |  | active |  |  |  |  | active |  | soluble in (solvents) [5]: water, n-butanol, 1-propanol, methanol and ethanol; Relative solubility: Medium soluble (solvents) [5]: MeOH, EtOH |
| COC1C(OCC2C(C)OC(=O)/C=C/C(C)C(OC3OC(C)CC(O)(C(C)O)C3O)C(C)CC(C)C(=O)/C=C/C3OC32)OC(C)C(O)C1OC (stereo not drawn) [P8, aldgamycin H] | active |  |  | > 100 |  |  | methanol, n-butanol, ethanol, 1 and 2-propnol, ethyl acetate, acetone, chloroform and dichloromethane; also recorded: MeOH, EtOR, Me2CO,; also recorded: n-BuOH, 1-PrOH, 2-; also recorded: PrOH, CH2Cl2,; also recorded: EtOAc, CHCl3 |  |  | > 100 | 1 (≈ 1.4 µM) |  | > 100 |  |  | > 100 | > 100 | > 100 |  |  |  |
| COC1C(OCC2/C=C/C=C/C(=O)C(C)CC(C)C(OC3OC(C)CC(O)(C(C)O)C3O)C(C)/C=C/C(=O)OC2C)OC(C)C(O)C1OC (stereo not drawn) [P10b, aldgamycin P10b] | active |  | 0.1 (≈ 0.143 µM) | > 100 |  | 1 (≈ 1.43 µM) | methanol, n-butanol, ethanol, 1 and 2-propnol, ethyl acetate, acetone, chloroform and dichloromethane | water and n-hexane | 30 (≈ 42.9 µM) | > 100 | 1 (≈ 1.43 µM) |  | > 100 |  | 1 (≈ 1.43 µM) | > 100 | > 100 | > 100 |  | 50 (≈ 71.5 µM) |  |
| COC1C(OCC2C(C)OC(=O)/C=C/C(C)C(OC3OC(C)CC4(OC(=O)OC4C)C3O)C(C)CC(C)C(=O)/C=C/C3OC32)OC(C)C(O)C1OC (stereo not drawn) [P10a, aldgamycin G] | active |  | 0.1 (≈ 0.135 µM) |  |  | 1 (≈ 1.35 µM) | methanol, n-butanol, ethanol, 1 and 2-propnol, ethyl acetate, acetone, chloroform and dichloromethane; also recorded: MeOH, EtOH, Me2CO,; also recorded: n-BuOH, 1-PrOH, 2-; also recorded: PrOH, CH2Cl2,; also recorded: EtOAc, CHCl3 |  | 30 (≈ 40.5 µM) |  | 1 (≈ 1.35 µM) |  |  |  | 1 (≈ 1.35 µM) |  |  |  |  | 50 (≈ 67.5 µM) | soluble in (solvents) [5]: n-butanol, 1 and 2-propanol, methanol, dichloromethane, ethyl acetate, chloroform, acetone and ethanol |
